{"source": "patent US8871787B2", "about": "“Stable crystalline salt of (R)-3-fluorophenyl-3,4,5-trifluorobenzylcarbamic acid 1-azabicyclo [2.2.2]oct-3-yl ester” (Laboratorios Salvat, S.A., priority 2007, dated 2014)", "key": {"[1]": {"test": "Salt screening of compound I with several acids (aspect of the salt)", "format": "physicochemical", "conditions": "free base and acid in hot ethanol, cooled, solvent evaporated", "procedure": "To select the most suitable salt of compound I and minimize the undesirable hygroscopic properties of the hydrochloride, several acids were tested. The free base of compound I was dissolved in hot ethanol, and then acid solution in hot ethanol was added. The mixture was then stirred and heated for 30 min. After cooling to room temperature, the solvent was removed by evaporation. […]"}, "[2]": {"test": "Equilibrium solubility of the D-tartrate salt in several solvents at 25° C.", "format": "physicochemical", "conditions": "for solubility: thermodynamic from solid, 25° C., measured as the free base"}, "[3]": {"tested_on": "healthy postmenopausal females", "test": "Phase I clinical trial: tolerability and preliminary efficacy, voiding diary", "format": "in vivo, human", "procedure": "A clinical trial was performed to evaluate the tolerability and preliminary efficacy of tarafenacin tartrate in healthy postmenopausal females.\nTwelve subjects from 50 to 70 years old were randomized to receive tarafenacin tartrate 0.125 mg, 0.4 mg or placebo o.d. for 17 days. Subjects filled a diary to record time and volume of each void. A descriptive analysis was performed."}, "[4]": {"tested_on": "patients suffering from Overactive Bladder syndrome", "test": "Phase II clinical trial: pharmacodynamics in overactive bladder patients (urodynamic assessments, tolerability)", "conditions": "4 weeks", "procedure": "A pharmacodynamic study of tarafenacin tartrate in patients suffering from Overactive Bladder syndrome was performed to obtain first efficacy and tolerability data in this population.\nThe study was randomised, double-blind, placebo and active-controlled. Patients received tarafenacin tartrate at the dose of 0.1 or 0.2 mg, tolterodine 4 mg or placebo o.d. during 4 weeks, just after a 2 week single-blind wash-out period in which all patients received placebo. Urodynamic assessments were performed at baseline and after 4 weeks administration.\nIt was planned to screen approximately 100 patients and randomize 77 patients, to obtain outcome data on 63 patients. Patients who entered the study were randomized into the four treatment groups during the double blind treatment period.\nAfter a Screening visit and a 14 day washout single blind period (placebo run in), patients were randomized to one of the four treatment arms by a 2:2:2:1 randomization schedule. In a single blind period, only the patients were blinded. During the treatment period, each patient received tarafenacin tartrate 0.1 mg/tarafenacin tartrate 0.2 mg/tolterodine (ER) 4 mg/placebo. Identical capsules were used to maintain the study blind.\nThe end of study procedures were performed at the Day 28 visit (End of Treatment [EOT]). A study follow up was conducted at Day 35 either telephonically or the patient was called to the clinic (End of Study [EOS]).\nThe primary endpoint was the pharmacodynamic endpoints and they were assessed as the mean change from baseline to Day 28 in urodynamic, salivary flow, and accommodation near point pharmacodynamic assessments."}, "[5]": {"test": "Physicochemical stability and hygroscopicity of the salts on storage", "conditions": "for physicochemical stability (in words): storage or formulation, room and enhanced temperature, high humidity, aqueous media", "source_text": "Compound I is also disclosed in WO2004000840. On the other hand, compound I is exemplified as hydrochloride salt in WO2003053966 as an intermediate in the synthesis of other compounds. […] Upon storage or formulation of said known salt, progressive decomposition and concomitantly an increase in the amount and number of impurities was observed. Obviously, this problem is further aggravated under demanding environmental conditions such as light, heat, humidity or acidity.\nIt has been particularly difficult to find stable, crystalline forms of (R)-3-fluorophenyl-3,4,5-trifluorobenzylcarbamic acid 1-azabicyclo[2.2.2]oct-3-yl ester. […] Thus, there remains a need for a salt of (R)-3-fluorophenyl-3,4,5-trifluorobenzylcarbamic acid 1-azabicyclo[2.2.2]oct-3-yl ester that forms a crystalline solid that has a desirable morphology, be stable in the presence of water and under conditions of a high relative humidity (above 85%) and can readily be prepared on a large scale."}, "[6]": {"conditions": "0.1 mg o.d., change from baseline to Day 28"}}}
{"smiles": "O=C(O)C(O)C(O)C(=O)O.O=C(O[C@H]1CN2CCC1CC2)N(Cc1cc(F)c(F)c(F)c1)c1cccc(F)c1", "note": "[D-tartrate salt, D-tartrate salt of (R)-3-fluorophenyl-3,4,5-trifluorobenzylcarbamic acid 1-azabicyclo[2.2.2]oct-3-yl ester]", "values": [{"measurement": "Aspect of the salt", "setting": "[1]; listed as D-Tartaric", "result": "White solid crystal precipitated in EtOH."}, {"measurement": "Aspect of the salt", "setting": "[1]; listed as salt obtained with D-tartaric acid", "result": "non-hygroscopic solid crystal"}, {"measurement": "solubility", "setting": "[2]; aqueous buffer, 0.1N sodium hydroxide", "result": 90, "unit": "µg/mL"}, {"measurement": "solubility in water (in words)", "setting": "[2]; crystalline form, water", "result": "highly soluble in water"}, {"measurement": "solubility", "setting": "[2]; organic solvent or mixture, Dichloromethane", "result": 2200, "unit": "µg/mL"}, {"measurement": "solubility", "setting": "[2]; organic solvent or mixture, Ethanol", "result": 10000, "unit": "µg/mL"}, {"measurement": "solubility", "setting": "[2]; organic solvent or mixture, Hexane", "result": 300, "unit": "µg/mL"}, {"measurement": "solubility", "setting": "[2]; organic solvent or mixture, Isopropyl alcohol", "result": 1500, "unit": "µg/mL"}, {"measurement": "solubility", "setting": "[2]; organic solvent or mixture, Methanol", "result": 258000, "unit": "µg/mL"}, {"measurement": "solubility", "setting": "[2]; organic solvent or mixture, n-Octanol", "result": 500, "unit": "µg/mL"}, {"measurement": "solubility", "setting": "[2]; simulated gastric fluid, 0.1 Hydrochloric acid", "result": 367000, "unit": "µg/mL"}, {"measurement": "solubility", "setting": "[2]; Water", "result": 251000, "unit": "µg/mL"}, {"measurement": "effect on the volume of urine per void (in words)", "setting": "[3]; 0.125 mg and 0.4 mg o.d. for 17 days", "result": "A dose-relationship was observed"}, {"measurement": "number of voids per day", "setting": "[3]; 0.125 mg group, day 0", "result": 7.6, "unit": "times per day"}, {"measurement": "number of voids per day", "setting": "[3]; 0.125 mg group, day 17", "result": 6.8, "unit": "times per day"}, {"measurement": "volume per void", "setting": "[3]; 0.125 mg o.d., from day 10 until day 17 (steady state)", "result": "450 to 550", "unit": "mL"}, {"measurement": "number of voids per day", "setting": "[3]; 0.4 mg group, day 0", "result": 8, "unit": "times per day"}, {"measurement": "number of voids per day", "setting": "[3]; 0.4 mg group, day 17", "result": 6.4, "unit": "times per day"}, {"measurement": "mean volumes per void", "setting": "[3]; 0.4 mg o.d., from day 2 until the end of the study", "result": "550 to 650", "unit": "mL"}, {"measurement": "incidence of treatment emergent adverse events", "setting": "[4]; 0.1 mg o.d.", "result": 25, "unit": "%"}, {"measurement": "increase in infused volume", "setting": "[4]; [6]", "result": 73, "unit": "mL"}, {"measurement": "increase in volume at first desire to void", "setting": "[4]; [6]", "result": 60, "unit": "mL"}, {"measurement": "increase in volume at strong desire to void", "setting": "[4]; [6]", "result": 71, "unit": "mL"}, {"measurement": "dose-response relationship (in words)", "setting": "[4]; 0.1 mg versus 0.2 mg o.d.", "result": "no dose-response relationship"}, {"measurement": "incidence of treatment emergent adverse events", "setting": "[4]; 0.2 mg o.d.", "result": 33, "unit": "%"}, {"measurement": "tolerability (in words)", "setting": "[4]; OAB patients", "result": "well tolerated"}, {"measurement": "pharmacological activity (in words)", "setting": "[4]; OAB patients, listed as Tarafenacin tartrate", "result": "good pharmacological activity"}, {"measurement": "pharmacological activity (in words)", "setting": "[4]; OAB patients, listed as tarafenacin tartrate", "result": "higher pharmacological activity"}, {"measurement": "hygroscopicity (in words)", "setting": "[5]", "result": "relatively non-hygroscopic"}, {"measurement": "physicochemical stability (in words)", "setting": "[5]", "result": "more stable than the hydrochloride salt"}, {"measurement": "physicochemical stability (in words)", "setting": "[5]; listed as Form I", "result": "stable at room temperature"}]}
